Measured values: publication PMC12006790 (Synthetic Biology, 2025)

Columns and labels:
[1] = molecular target: T1, HjCel7A (Trichoderma reesei, UniProt P62694); experiment: p-nitrophenol release, […] nm; assay type: biochemical; details: 2 mM substrate, PBS pH 7.4, 40 °C, 12 h
T1 sequence (P62694 18-513): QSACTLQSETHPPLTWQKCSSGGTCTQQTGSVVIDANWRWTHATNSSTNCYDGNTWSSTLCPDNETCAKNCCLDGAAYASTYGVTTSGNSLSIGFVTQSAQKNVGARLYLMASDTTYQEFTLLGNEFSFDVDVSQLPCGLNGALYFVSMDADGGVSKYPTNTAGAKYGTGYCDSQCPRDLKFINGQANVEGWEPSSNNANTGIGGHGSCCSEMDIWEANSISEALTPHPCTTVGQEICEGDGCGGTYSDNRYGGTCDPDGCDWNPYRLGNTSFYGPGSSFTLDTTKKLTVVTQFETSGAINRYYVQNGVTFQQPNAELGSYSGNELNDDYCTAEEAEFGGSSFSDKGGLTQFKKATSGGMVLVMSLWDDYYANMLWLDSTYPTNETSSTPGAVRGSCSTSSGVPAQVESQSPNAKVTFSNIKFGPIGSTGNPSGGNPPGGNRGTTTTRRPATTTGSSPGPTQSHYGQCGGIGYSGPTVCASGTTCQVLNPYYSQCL

[2] = molecular target: T2, CelEdx16 (Clostridiaceae bacterium AN-C16-KBRB, UniProt E0A3Q5); experiment: p-nitrophenol release, […] nm; assay type: biochemical; details: 2 mM substrate, PBS pH 7.4, 40 °C, 12 h
T2 sequence (E0A3Q5 1-367): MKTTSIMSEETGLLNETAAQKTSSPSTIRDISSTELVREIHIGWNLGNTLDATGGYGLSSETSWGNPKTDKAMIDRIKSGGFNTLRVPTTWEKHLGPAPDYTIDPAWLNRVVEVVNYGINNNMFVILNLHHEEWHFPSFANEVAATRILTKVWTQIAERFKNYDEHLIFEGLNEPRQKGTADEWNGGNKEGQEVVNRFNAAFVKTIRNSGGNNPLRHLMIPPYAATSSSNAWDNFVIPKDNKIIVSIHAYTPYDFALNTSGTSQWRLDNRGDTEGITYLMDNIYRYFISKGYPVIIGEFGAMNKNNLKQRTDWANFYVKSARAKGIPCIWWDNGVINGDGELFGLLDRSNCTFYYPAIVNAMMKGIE

O=[N+]([O-])c1ccc(O[C@@H]2O[C@H](CO)[C@@H](O[C@@H]3O[C@H](CO)[C@@H](O)[C@H](O)[C@H]3O)[C@H](O)[C@H]2O)cc1 [p-nitrophenyl β-D-cellobioside]
p-nitrophenol release, 405 nm; cell-free CB-biosensor [1]: pNP assay detected significant signals for CelEdx16 and HjCel7A (CBHI)
p-nitrophenol release, 405 nm; cell-free CB-biosensor [2]: pNP assay detected significant signals for CelEdx16 and HjCel7A (CBHI)
